PubChem BioAssay AID1963825 (Molecular Pharmacology Branch, DTP, NCI, 2024)

Assay: Anticancer human tumor 997537-175-T-J1-PDC patient-derived colon adenocarcinoma cell line growth inhibition [POLQ]
Settings: 997537-175-T-J1-PDC complex spheroid viability, combination with POLQ inhibitors; for IC50: curve of first compound; for viability, T/C: stronger effect = lower value
How it was run: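 Complex spheroid viability model combining PDC tumour cells with endothelial (HUVEC) and MSC stromal cells. Novobiocin, ART-558 or RP6685 were tested singly and in combination with standard and investigational anticancer drugs. Each was titrated in half-log steps from near clinical Cmax, or from 10 microM where Cmax was unknown.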

[1] = second compound 0.0316 µM, first compound 0.0316 µM
[2] = second compound 0.0316 µM, first compound 0.1 µM
[3] = second compound 0.0316 µM, first compound 0.316 µM
[4] = second compound 0.0316 µM, first compound 1 µM
[5] = second compound 0.0316 µM, first compound 3.16 µM
[6] = second compound 0.0316 µM, first compound 10 µM
[7] = second compound 0.1 µM, first compound 0.0316 µM
[8] = second compound 0.1 µM, first compound 0.1 µM
[9] = second compound 0.1 µM, first compound 0.316 µM
[10] = second compound 0.1 µM, first compound 1 µM
[11] = second compound 0.1 µM, first compound 3.16 µM
[12] = second compound 0.1 µM, first compound 10 µM
[13] = second compound 0.316 µM, first compound 0.0316 µM
[14] = second compound 0.316 µM, first compound 0.1 µM
[15] = second compound 0.316 µM, first compound 0.316 µM
[16] = second compound 0.316 µM, first compound 1 µM
[17] = second compound 0.316 µM, first compound 3.16 µM
[18] = second compound 0.316 µM, first compound 10 µM
[19] = second compound 1 µM, first compound 0.0316 µM
[20] = second compound 1 µM, first compound 0.1 µM
[21] = second compound 1 µM, first compound 0.316 µM
[22] = second compound 1 µM, first compound 1 µM
[23] = second compound 1 µM, first compound 3.16 µM
[24] = second compound 1 µM, first compound 10 µM
[25] = second compound 3.16 µM, first compound 0.0316 µM
[26] = second compound 3.16 µM, first compound 0.1 µM
[27] = second compound 3.16 µM, first compound 0.316 µM
[28] = second compound 3.16 µM, first compound 1 µM
[29] = second compound 3.16 µM, first compound 3.16 µM
[30] = second compound 3.16 µM, first compound 10 µM
[31] = second compound 10 µM, first compound 0.0316 µM
[32] = second compound 10 µM, first compound 0.1 µM
[33] = second compound 10 µM, first compound 0.316 µM
[34] = second compound 10 µM, first compound 1 µM
[35] = second compound 10 µM, first compound 3.16 µM
[36] = second compound 10 µM, first compound 10 µM
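Further: luminescence signal used as a surrogate for viable cells; spheroids exposed to drugs for seven days before readout.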

## C=CC(=O)N1CCN(c2nc(=O)n(-c3c(C)ccnc3C(C)C)c3nc(-c4c(O)cccc4F)c(F)cc23)C(C)C1 (centres undefined) + COC1C(OC(N)=O)C(O)C(Oc2ccc3c(O)c(NC(=O)c4ccc(O)c(CC=C(C)C)c4)c(=O)oc3c2C)OC1(C)C
Second compound 0.0316 µM
  IC50: > 10 µM
Second compound 0.1 µM
  IC50: > 10 µM
Second compound 0.316 µM
  IC50: > 10 µM
Second compound 1 µM
  IC50: > 10 µM
Second compound 3.16 µM
  IC50: > 10 µM
Second compound 10 µM
  IC50: > 10 µM
[1]
  viability, T/C: 106%
[2]
  viability, T/C: 108%
[3]
  viability, T/C: 107%
[4]
  viability, T/C: 112%
[5]
  viability, T/C: 109%
[6]
  viability, T/C: 91.7%
[7]
  viability, T/C: 123%
[8]
  viability, T/C: 125%
[9]
  viability, T/C: 95.5%
[10]
  viability, T/C: 91.5%
[11]
  viability, T/C: 115%
[12]
  viability, T/C: 108%
[13]
  viability, T/C: 106%
[14]
  viability, T/C: 95.6%
[15]
  viability, T/C: 106%
[16]
  viability, T/C: 105%
[17]
  viability, T/C: 117%
[18]
  viability, T/C: 93.8%
[19]
  viability, T/C: 106%
[20]
  viability, T/C: 113%
[21]
  viability, T/C: 96.6%
[22]
  viability, T/C: 105%
[23]
  viability, T/C: 109%
[24]
  viability, T/C: 105%
[25]
  viability, T/C: 105%
[26]
  viability, T/C: 101%
[27]
  viability, T/C: 115%
[28]
  viability, T/C: 104%
[29]
  viability, T/C: 101%
[30]
  viability, T/C: 95.7%
[31]
  viability, T/C: 96.3%
[32]
  viability, T/C: 109%
[33]
  viability, T/C: 93%
[34]
  viability, T/C: 105%
[35]
  viability, T/C: 104%
[36]
  viability, T/C: 96.7%

## CC(C)n1c(=O)n(C)c2cnc3cc(F)c(-c4ccc(OCCCN5CCCCC5)nc4)cc3c21 + COC1C(OC(N)=O)C(O)C(Oc2ccc3c(O)c(NC(=O)c4ccc(O)c(CC=C(C)C)c4)c(=O)oc3c2C)OC1(C)C
Second compound 0.0316 µM
  IC50: > 10 µM
Second compound 0.1 µM
  IC50: > 10 µM
Second compound 0.316 µM
  IC50: > 10 µM
Second compound 1 µM
  IC50: > 10 µM
Second compound 3.16 µM
  IC50: > 10 µM
Second compound 10 µM
  IC50: > 10 µM
[1]
  viability, T/C: 79%
[2]
  viability, T/C: 104%
[3]
  viability, T/C: 106%
[4]
  viability, T/C: 89.6%
[5]
  viability, T/C: 102%
[6]
  viability, T/C: 89.5%
[7]
  viability, T/C: 103%
[8]
  viability, T/C: 102%
[9]
  viability, T/C: 102%
[10]
  viability, T/C: 96%
[11]
  viability, T/C: 93.8%
[12]
  viability, T/C: 88.1%
[13]
  viability, T/C: 83.8%
[14]
  viability, T/C: 102%
[15]
  viability, T/C: 114%
[16]
  viability, T/C: 80.4%
[17]
  viability, T/C: 89.2%
[18]
  viability, T/C: 77.7%
[19]
  viability, T/C: 97.6%
[20]
  viability, T/C: 97.3%
[21]
  viability, T/C: 102%
[22]
  viability, T/C: 99.6%
[23]
  viability, T/C: 93.2%
[24]
  viability, T/C: 88%
[25]
  viability, T/C: 98.4%
[26]
  viability, T/C: 97.8%
[27]
  viability, T/C: 90.7%
[28]
  viability, T/C: 88%
[29]
  viability, T/C: 80%
[30]
  viability, T/C: 89.8%
[31]
  viability, T/C: 103%
[32]
  viability, T/C: 95.8%
[33]
  viability, T/C: 90.9%
[34]
  viability, T/C: 82.6%
[35]
  viability, T/C: 80.1%
[36]
  viability, T/C: 85.5%
